Target: T1, full-length recombinant rat vitamin D receptor (VDR) (Rattus norvegicus, UniProt P13053)
T1 sequence (P13053 1-423): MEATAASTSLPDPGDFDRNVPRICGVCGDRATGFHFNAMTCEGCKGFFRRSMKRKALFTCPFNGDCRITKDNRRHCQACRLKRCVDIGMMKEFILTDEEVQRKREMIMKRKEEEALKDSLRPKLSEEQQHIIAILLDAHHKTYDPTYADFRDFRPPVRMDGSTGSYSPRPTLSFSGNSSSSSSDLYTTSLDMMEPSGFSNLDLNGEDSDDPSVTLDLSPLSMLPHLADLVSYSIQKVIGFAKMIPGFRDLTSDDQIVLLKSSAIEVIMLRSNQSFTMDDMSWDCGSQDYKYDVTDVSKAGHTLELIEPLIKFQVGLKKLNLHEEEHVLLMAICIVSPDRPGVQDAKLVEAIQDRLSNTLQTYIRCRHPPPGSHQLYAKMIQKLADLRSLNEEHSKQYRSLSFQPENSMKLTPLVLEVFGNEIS
Experiment: competitive radioligand displacement
Format: binding

Structure (SMILES) | Ki [nM]
C=C1[C@H](O)CC(=C/C=C2\CCC[C@]3(C)[C@@H]([C@H](C)/C=C/CC(C)(C)O)CC[C@@H]23)C[C@H]1O [compound 6, 2-Methylene-19-nor-22(E)-ene-1α,25-dihydroxyvitamin D3] | 0.06
C=C1[C@H](O)CC(=C/C=C2\CCC[C@]3(C)[C@@H]([C@H](C)/C=C/C[C@H](C)O)CC[C@@H]23)C[C@H]1O [8b, (20R,25S)-2-Methylene-19,26-dinor-22-(E)-ene-1α,25-dihydroxyvitamin D3] | 0.3
C[C@H](/C=C/[C@H](C)C(C)(C)O)[C@H]1CC[C@H]2/C(=C/C=C3C[C@@H](O)C[C@H](O)C3)CCC[C@]12C [compound 2, 19-Nor-1α,25-dihydroxyvitaminD2 (Zemplar)] | 0.1
C=C1[C@H](O)CC(=C/C=C2\CCC[C@]3(C)[C@@H]([C@H](C)/C=C/C[C@@H](C)O)CC[C@@H]23)C[C@H]1O [8a, (20R,25R)-2-Methylene-19,26-dinor-22-(E)-ene-1α,25-dihydroxyvitamin D3] | 0.09

Further lines, results first:

Ki [nM] | Structure (SMILES)
0.08 | C=C1[C@H](O)CC(=C/C=C2\CCC[C@]3(C)[C@@H]([C@@H](C)/C=C/C[C@@H](C)O)CC[C@@H]23)C[C@H]1O [9a, (20S,25R)-2-Methylene-19,26-dinor-22-(E)-ene-1α,25-dihydroxyvitamin D3]
0.2 | C=C1[C@H](O)CC(=C/C=C2\CCC[C@]3(C)[C@@H]([C@@H](C)/C=C/C[C@H](C)O)CC[C@@H]23)C[C@H]1O [9b, (20S,25S)-2-Methylene-19,26-dinor-22-(E)-ene-1α,25-dihydroxyvitamin D3]
